Results as given in ChEMBL document CHEMBL1145404, “o-Naphthalenedicarboxaldehyde derivative of 7'-aminonaltrindole as a selective delta-opioid receptor affinity label” (J Med Chem, 2007).

Tests used:
Mu-type opioid receptor [1] = target: Mu-type opioid receptor (Cavia porcellus, UniProt P97266); test: Agonist activity at mu opioid receptor in guinea pig ileum longitudinal muscle; format: functional, tissue-based
[2] = target: Kappa-type opioid receptor (Homo sapiens, UniProt P41145); test: Displacement of [3H]diprenorphine from kappa opioid receptor expressed in human HEK293 cells; format: cell-based
Kappa-type opioid receptor, sequence (P41145 whole entry): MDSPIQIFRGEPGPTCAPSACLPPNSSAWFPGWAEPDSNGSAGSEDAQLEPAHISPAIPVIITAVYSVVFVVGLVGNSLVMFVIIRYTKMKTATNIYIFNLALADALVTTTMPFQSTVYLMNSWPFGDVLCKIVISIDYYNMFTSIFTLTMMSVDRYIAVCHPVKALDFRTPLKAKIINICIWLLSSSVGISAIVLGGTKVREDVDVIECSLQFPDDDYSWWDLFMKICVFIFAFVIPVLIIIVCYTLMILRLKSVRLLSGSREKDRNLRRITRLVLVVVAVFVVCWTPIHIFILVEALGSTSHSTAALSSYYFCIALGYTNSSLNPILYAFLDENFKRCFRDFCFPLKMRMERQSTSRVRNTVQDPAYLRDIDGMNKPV

Mu-type opioid receptor [3] = target: Mu-type opioid receptor (Homo sapiens, UniProt P35372); test: Displacement of [3H]diprenorphine from mu opioid receptor expressed in human HEK293 cells; format: cell-based
Mu-type opioid receptor (Homo sapiens, UniProt P35372), sequence (P35372 whole entry): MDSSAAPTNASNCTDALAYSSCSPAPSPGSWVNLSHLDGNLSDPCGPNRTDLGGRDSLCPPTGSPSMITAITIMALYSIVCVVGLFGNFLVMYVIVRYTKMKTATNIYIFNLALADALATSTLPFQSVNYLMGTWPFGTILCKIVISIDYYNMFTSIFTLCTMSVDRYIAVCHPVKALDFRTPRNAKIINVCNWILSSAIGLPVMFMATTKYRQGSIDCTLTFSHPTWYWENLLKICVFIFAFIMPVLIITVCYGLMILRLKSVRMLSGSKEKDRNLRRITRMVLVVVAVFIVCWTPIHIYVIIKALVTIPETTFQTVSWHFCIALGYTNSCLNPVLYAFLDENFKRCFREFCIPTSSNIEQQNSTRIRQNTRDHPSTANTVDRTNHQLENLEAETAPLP

[4] = target: Delta-type opioid receptor (Mus musculus, UniProt P32300); test: Agonist activity at delta opioid receptor in mouse vas deferens; format: functional, tissue-based
Delta-type opioid receptor (Mus musculus, UniProt P32300), sequence (P32300 whole entry): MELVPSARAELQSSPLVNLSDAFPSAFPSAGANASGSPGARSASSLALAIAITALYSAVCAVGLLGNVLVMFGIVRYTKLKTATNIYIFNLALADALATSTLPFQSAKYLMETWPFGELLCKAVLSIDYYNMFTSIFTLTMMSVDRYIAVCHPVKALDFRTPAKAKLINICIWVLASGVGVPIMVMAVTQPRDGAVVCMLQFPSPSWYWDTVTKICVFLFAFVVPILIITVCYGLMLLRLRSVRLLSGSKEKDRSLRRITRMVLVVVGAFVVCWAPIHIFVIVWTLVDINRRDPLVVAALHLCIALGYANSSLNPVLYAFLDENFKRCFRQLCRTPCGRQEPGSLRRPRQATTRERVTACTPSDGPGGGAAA

[5] = target: Delta-type opioid receptor (Homo sapiens, UniProt P41143); test: Displacement of [3H]diprenorphine from delta opioid receptor expressed in human HEK293 cells; format: cell-based
Delta-type opioid receptor (Homo sapiens, UniProt P41143), sequence (P41143 whole entry): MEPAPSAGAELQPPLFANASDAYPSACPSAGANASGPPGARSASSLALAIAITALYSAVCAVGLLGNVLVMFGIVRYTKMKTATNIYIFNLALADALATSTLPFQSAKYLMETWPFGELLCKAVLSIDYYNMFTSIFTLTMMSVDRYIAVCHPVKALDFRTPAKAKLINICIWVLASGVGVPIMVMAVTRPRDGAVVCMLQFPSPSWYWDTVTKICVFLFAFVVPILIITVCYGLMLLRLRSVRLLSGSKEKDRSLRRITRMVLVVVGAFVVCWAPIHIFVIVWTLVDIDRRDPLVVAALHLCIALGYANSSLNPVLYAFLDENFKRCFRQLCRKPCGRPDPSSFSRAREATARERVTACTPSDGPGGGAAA

[6] = target: Opioid receptors; delta & kappa (Homo sapiens) (UniProt P41145+P41143); test: Selectivity for human delta opioid receptor to human kappa opioid receptor; format: protein assay
Opioid receptors; delta & kappa (Homo sapiens), sequence (P41143 whole entry, looked up): as the sequence (P41143 whole entry) above
Opioid receptors; delta & kappa (Homo sapiens), sequence (P41145 whole entry, looked up): as the sequence (P41145 whole entry) above

[7] = target: Opioid receptors; mu & delta (Homo sapiens) (UniProt P41143+P35372); test: Selectivity for human delta opioid receptor to human mu opioid receptor; format: protein assay
Opioid receptors; mu & delta (Homo sapiens), sequence (P35372 whole entry, looked up): as the sequence (P35372 whole entry) above
Opioid receptors; mu & delta (Homo sapiens), sequence (P41143 whole entry, looked up): as the sequence (P41143 whole entry) above

Mu-type opioid receptor (Cavia porcellus, UniProt P97266), sequence (P97266 whole entry): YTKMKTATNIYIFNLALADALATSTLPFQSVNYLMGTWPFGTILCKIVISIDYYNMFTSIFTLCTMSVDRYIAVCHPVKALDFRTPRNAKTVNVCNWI

O=Cc1cc2ccc(C(=O)Nc3cccc4c5c([nH]c34)[C@@H]3Oc4c(O)ccc6c4[C@@]34CCN(CC3CC3)[C@H](C6)[C@]4(O)C5)cc2cc1C=O
IC50 (Mu-type opioid receptor [1]): 19.5 nM
Ki [2]: 153 nM
Ki (Mu-type opioid receptor [3]): 144 nM
IC50 [4]: 0.46 nM
Ki [5]: 2.25 nM
Ratio Ki [6]: 68
Ratio Ki [7]: 64
